From patent EP4793271A1, “NEUROPROTECTIVE AGENT” (National Center of Neurology and Psychiatry, priority 2023, dated 2025)
pIC50: −log10 of the molar value.

Experiments:
[1] = test system: primary cultured cells of mouse fetus-derived dorsal root ganglia (DRGs); assay: Suppression of axonal degeneration after axotomy in DRG explant culture; type: cell-based; details: minimum concentration at which axonal degeneration was suppressed (DI 0.3 or less), 24 hours after axotomy; for minimal effective concentration: Mus musculus, read-out: Evaluation on protection against degeneration
In short: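 Embryonic ICR mouse DRG explants were cultured 7–8 days in nicotinamide-free neuronal medium with NGF, then axotomized by removing the cell bodies. Compound (100 pM–10 µM final, 0.1% DMSO) was added within 30 min, and neurites were imaged 24 h later. The result is the lowest concentration giving degeneration index ≤0.3.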

[2] = molecular target: T1, nicotinamide phosphoribosyl transferase (NAMPT) (Homo sapiens, UniProt P43490); assay: NAMPT activity measurement (NMN fluorescence detection); type: biochemical; details: NAMPT recombinant protein, 10 µM Nam; for pIC50: read-out: Evaluation on NAMPT inhibitory
T1 construct: purchased Medical & Biological Laboratories Co., Ltd. (MBL)
T1 sequence (P43490 whole entry, species assumed): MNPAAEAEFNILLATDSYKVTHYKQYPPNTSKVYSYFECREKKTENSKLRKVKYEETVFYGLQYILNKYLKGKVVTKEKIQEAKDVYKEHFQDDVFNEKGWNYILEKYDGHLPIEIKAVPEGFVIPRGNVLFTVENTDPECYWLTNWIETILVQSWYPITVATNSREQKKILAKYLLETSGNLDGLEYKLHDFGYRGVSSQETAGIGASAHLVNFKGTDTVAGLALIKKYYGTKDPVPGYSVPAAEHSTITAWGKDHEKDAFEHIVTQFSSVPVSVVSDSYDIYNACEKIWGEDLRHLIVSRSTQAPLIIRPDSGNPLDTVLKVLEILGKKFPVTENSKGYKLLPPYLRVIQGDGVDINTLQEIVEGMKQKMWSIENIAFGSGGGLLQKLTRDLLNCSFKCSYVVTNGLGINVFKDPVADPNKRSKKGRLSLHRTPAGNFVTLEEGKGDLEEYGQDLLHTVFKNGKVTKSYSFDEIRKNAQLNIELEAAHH
In short: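 Recombinant NAMPT reacted with 10 µM Nam, 0.5 µM PRPP, 2 µM ATP in Tris pH 7.4 buffer with MgCl2, DTT, BSA; product NMN quantified by fluorescence (ex 421/em 480 nm) after derivatization with 2-acetylbenzofuran. Compounds at 3 nM–10 µM; control-normalized signal used for IC50.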

hSARM1 = molecular target: T2, hSARM1 (Homo sapiens, UniProt Q6SZW1); assay: Human SARM1 activity measurement in HEK293 cells transiently transfected with ΔN-hSARM1 (PC6 fluorescent probe); type: cell-based; parameters: expressed in transfected cells; host or cells: HEK293, pcDNA3 expression vector; details: inhibition rate; compound 30 µM; PC6 50 µM; HEK293 cells expressing ΔN-hSARM1; approximately 48 hours from transfection; read-out: Evaluation on hSARM1 inhibitory
T2 sequence (Q6SZW1 28-724): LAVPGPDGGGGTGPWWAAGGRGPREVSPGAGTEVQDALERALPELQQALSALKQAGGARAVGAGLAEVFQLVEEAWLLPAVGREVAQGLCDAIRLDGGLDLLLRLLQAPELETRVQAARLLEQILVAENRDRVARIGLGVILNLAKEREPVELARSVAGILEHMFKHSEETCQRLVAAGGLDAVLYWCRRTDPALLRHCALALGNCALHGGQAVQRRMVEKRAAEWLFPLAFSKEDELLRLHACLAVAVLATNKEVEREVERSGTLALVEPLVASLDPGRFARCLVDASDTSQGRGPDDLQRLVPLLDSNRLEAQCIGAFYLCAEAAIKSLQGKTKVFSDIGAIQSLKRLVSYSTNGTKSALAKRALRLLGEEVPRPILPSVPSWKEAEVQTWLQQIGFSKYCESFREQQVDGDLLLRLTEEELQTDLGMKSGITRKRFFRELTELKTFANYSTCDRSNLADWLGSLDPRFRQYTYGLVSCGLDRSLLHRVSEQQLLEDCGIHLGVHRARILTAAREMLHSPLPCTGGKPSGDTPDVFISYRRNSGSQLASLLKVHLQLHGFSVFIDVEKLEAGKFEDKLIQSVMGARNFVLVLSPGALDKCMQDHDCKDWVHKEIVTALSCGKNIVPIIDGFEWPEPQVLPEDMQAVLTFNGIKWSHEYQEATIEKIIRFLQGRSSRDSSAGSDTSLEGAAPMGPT
In short: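 HEK293 cells in nicotinamide-free DMEM with 5 μM nicotinamide, transiently transfected with mitochondrial-targeting-deleted ΔN-hSARM1; PC6 base-exchange fluorescent probe (50 μM) plus compound (30 μM) added ~8 h post-transfection. Fluorescence (ex 405/em 525 nm) read ~48 h from transfection; inhibition % versus transfected DMSO control, untransfected background subtracted.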

SMILES | Evaluation on NAMPT inhibitory [2] | inhibition at 30 µM (hSARM1) [%] | pIC50 [2] | minimal effective concentration [1] [µM] | Evaluation on protection against degeneration [1]
O=C(NCCCCCCCCOCCO)c1cccnc1 [compound 4] | ○ | > 75 |  |  | A (A ≤ 0.01 µM)
O=C(NCCCCCCCCOCCOCCO)c1cccnc1 [compound 6] |  | > 75 | ≤ 7.00 | ≤ 0.01 | 
O=C(NCCCCCCCCOCCOCCOCCO)c1cccnc1 [compound 8] |  | > 50 | ≤ 7.00 | ≤ 0.01 | 
C#CCOCCOCCNC(=O)c1cccnc1 [compound 11] | ○ | > 10 |  | 0.01 to 0.1 | 
O=C(/C=C/c1cccnc1)NCCOCCOc1ccccc1 [compound 17] |  | > 75 | ≤ 7.00 | ≤ 0.01 | 
COc1cccc(OCCCNC(=O)/C=C/c2cccnc2)c1 [compound 18] |  | > 75 | ≤ 7.00 | ≤ 0.01 | 
COc1cccc(OCCNC(=O)/C=C/c2cccnc2)c1 [compound 19] |  | > 75 | ≤ 7.00 | ≤ 0.01 | 
COCOc1cccc(OCCCNC(=O)c2cccnc2)c1 [compound 25] | ○ | > 75 |  |  | B (0.01 µM < B ≤ 0.1 µM)
COc1cccc(OCCOCCNC(=O)/C=C/c2cccnc2)c1 [compound 28] |  | > 75 | ≤ 7.00 | ≤ 0.01 | 
COCOc1cccc(OCCOCCNC(=O)c2cccnc2)c1 [compound 30] | ○ | > 50 |  | 0.01 to 0.1 | 
O=C(NCCOCCOCCNC(=O)c1cccnc1)c1cccnc1 [compound 34] | ○ | > 75 |  | ≤ 0.01 | 
O=C(/C=C/c1cccnc1)NCCOCCNC(=O)/C=C/c1cccnc1 [compound 37] | ○ | > 75 |  | 0.01 to 0.1 | 
O=C(/C=C/c1cccnc1)NCCCNC(=O)/C=C/c1cccnc1 [compound 39] | ○ | > 75 |  | ≤ 0.01 | 
O=C(CNC(=O)c1cccnc1)NCCNC(=O)CNC(=O)c1cccnc1 [compound 40] | ○ | > 10 |  | 0.1 to 1 | 
O=C(CNC(=O)c1cccnc1)NCCCCCCNC(=O)CNC(=O)c1cccnc1 [compound 41] | ○ | > 75 |  | ≤ 0.01 | 
C/C(=C\C(=O)NCCOCCNC(=O)/C=C(\C)c1cccnc1)c1cccnc1 [compound 43] |  | > 75 | ≤ 7.00 | ≤ 0.01 | 
O=C(NCCCCCCNC(=O)c1cncc(O)c1)c1cccnc1 [compound 57] |  | > 75 | ≤ 7.00 | 0.01 to 0.1 | 
O=C(/C=C/c1cccnc1)Nc1cccc(NC(=O)/C=C/c2cccnc2)n1 [compound 59] | ○ | > 25 |  |  | A (A ≤ 0.01 µM)
O=C(/C=C/c1cccnc1)NCc1cccc(NC(=O)/C=C/c2cccnc2)c1 [compound 61] |  | > 75 | ≤ 7.00 | ≤ 0.01 | 
O=C(NCCCNS(=O)(=O)c1ccccc1[N+](=O)[O-])c1cccnc1 [compound 63] | ○ | > 10 |  | 0.1 to 1 | 
O=C(/C=C/c1cccnc1)Nc1ccc(CNC(=O)c2ccccc2)cc1 [compound 64] |  | > 75 | ≤ 7.00 | ≤ 0.01 | 
CC(C)(C)OC(=O)NCCCOCCOCCCNC(=O)c1cccnc1 [compound 70] | ○ | > 50 |  | ≤ 0.01 | 
CC(C)(C)OC(=O)NCCOCCOCCNC(=O)c1cccnc1 [compound 71] | ○ | > 50 |  |  | A (A ≤ 0.01 µM)
O=C(/C=C/c1ccccc1)Nc1ccc(CNC(=O)c2cccnc2)cn1 [compound 74] | ○ | > 75 |  | 0.01 to 0.1 | 
O=C(/C=C/c1cccnc1)Nc1ccc(CNC(=O)c2cccnc2)cn1 [compound 75] |  | > 75 | ≤ 7.00 | ≤ 0.01 | 
Cc1ccc(C(=O)Nc2ccc(CNC(=O)/C=C/c3cccnc3)cn2)cc1 [compound 78] | ○ | > 75 |  | ≤ 0.01 | 
C=Cc1ccc(C(=O)Nc2ccc(CNC(=O)c3cccnc3)cn2)cc1 [compound 80] |  | > 75 | ≤ 7.00 | ≤ 0.01 | 

The next lines start with results.

Evaluation on NAMPT inhibitory [2] | inhibition at 30 µM (hSARM1) [%] | pIC50 [2] | SMILES | minimal effective concentration [1] [µM] | Evaluation on protection against degeneration [1]
○ | > 25 |  | O=C(NCCCOCCOCCCNC(=O)c1ccc2ncccc2c1)c1cccnc1 [Compound 188] | ≤ 0.01 | 
○ | > 75 |  | O=C(NCCOCCOc1ccc(CNC(=O)c2ccccc2)cc1)c1cccnc1 [compound 13] | 0.01 to 0.1 | 
 | > 75 | ≤ 7.00 | O=C(NCCCOc1ccc(CNC(=O)c2ccccc2)cc1)c1cccnc1 [compound 15] | ≤ 0.01 | 
 | > 75 | ≤ 7.00 | O=C(/C=C/c1cccnc1)NCCCOc1ccc(CNC(=O)c2ccccc2)cc1 [compound 16] | ≤ 0.01 | 
○ | > 75 |  | CC(=O)NCc1ccc(OCCCNC(=O)c2cccnc2)cc1 [compound 20] | 0.01 to 0.1 | 
○ | > 50 |  | CC(=O)NCc1ccc(OCCOCCNC(=O)c2cccnc2)cc1 [compound 21] | ≤ 0.01 | 
 | > 75 | ≤ 7.00 | CC(=O)NCc1ccc(OCCOCCNC(=O)/C=C/c2cccnc2)cc1 [compound 22] | ≤ 0.01 | 
 | > 75 | ≤ 7.00 | O=C(NCCOCCOc1cccc(O)c1)c1cccnc1 [compound 27] | 0.01 to 0.1 | 
 | > 75 | ≤ 7.00 | COC(=O)c1ccc(OCCOCCNC(=O)/C=C/c2cccnc2)cc1 [compound 31] | ≤ 0.01 | 
○ | > 50 |  | COC(=O)c1ccc(OCCOCCNC(=O)c2cccnc2)cc1 [compound 32] | ≤ 0.01 | 
○ | > 75 |  | O=C(CCc1ccccc1)NCc1ccc(CNC(=O)c2cccnc2)cc1 [compound 65] | ≤ 0.01 | 
 | > 75 | ≤ 7.00 | C#CCOc1cncc(C(=O)Nc2ccc(CNC(=O)c3cccnc3)cc2)c1 [compound 67] | ≤ 0.01 | 
○ | > 50 |  | CC(C)C(=O)Nc1ccc(CNC(=O)c2cccnc2)cn1 [compound 72] | 0.01 to 0.1 | 
○ | > 50 |  | N#Cc1ccc(C(=O)Nc2ccc(CNC(=O)c3cccnc3)cn2)cc1 [compound 73] | ≤ 0.01 | 
